Data taken from patent US11401255B2, “Small molecule activators of Parkin enzyme function” (Mayo Foundation for Medical Education and Research, priority 2016, dated 2022).
Structures can show the parent of a compound that is named as a salt. Where two headings read alike, the source gives them in different places.

Assays:
[1] = molecular target: CYP 2D6 (Homo sapiens (Human), UniProt P10635); assay: P450-Glo CYP450 inhibition, CYP 2D6
Experimental: CYP450 inhibition profiling provides valuable information regarding any possible drug-drug interactions for a test compound.
All experiments were performed using P450-Glo™ Assay Systems (Promega) in accordance with the manufacturer's protocols. The P450-Glo™ Assays provide a luminescent readout-based method for measuring cytochrome P450 activity. A conventional cytochrome P450 reaction was performed by incubating the cytochrome P450 and a luminogenic cytochrome P450 substrate. The substrates in the P450-Glo™ assays are derivatives of beetle luciferin. The derivatives themselves are not substrates for luciferase but are converted by cytochrome P450s to luciferin, which in turn reacts with luciferase to produce light. The amount of light produced was directly proportional to cytochrome P450 activity. All test points were performed in quadruplicates. Control membranes (without CYPs) represented the Negative control (baseline).
The following reference compounds were used to assess CYP inhibition: […]

[2] = molecular target: FLAG-Parkin C431S (Homo sapiens (Human), UniProt O60260, C431S); assay: Ub-charging of FLAG-Parkin C431S (western blot); assay type: cell-based; details: 1 μM, 2 h before 3.5 μM CCCP (FIG. 21)
Experimental: Another measure of Parkin activation is Ub charging of Parkin. Parkin receives Ub from an E2 enzyme to transfer it to a substrate protein. The Ub is bound by Parkin C431 in an unstable thioester bond. A serine substitution of this amino acid (C431S) leads to a stable oxyester bond. The bound Ub can then be visualized as a band shift in Western blot experiments. HeLa 3×FLAG-Parkin C431S cells were seeded in 12-well plates and allowed to attach overnight. Cells were treated with 5 μM (top panels) or 1 μM (bottom panels) of Compounds 1, 2, 3, 4, and 31 2 h before adding CCCP for another 2 h. 10 μM CCCP was added to positive control (PC) wells whereas all other samples received a low dose concentration of 3.5 μM. Cells were harvested in boiling hot SDS lysis buffer and protein concentration was determined by BCA. Samples were split and left either untreated or were treated with NaOH as indicated. Samples were run on an 8-16% Tris-Glycine gel, blotted onto membranes and probed with antibodies against Flag and pS65-Ub. GAPDH served as a loading control. Band shift indicates Parkin binding to Ubiquitin, which is cleavable with NaOH.
Cells were harvested in RIPA buffer or NP-40 lysis buffer containing protease and phosphatase inhibitors (Complete and PhosStop, Roche Applied Science) with the exception of Parkin Ub charging experiments where preheated (95° C.) SDS lysis buffer (50 mM Tris pH 7.6, 150 mM NaCl, 1% SDS) was used. Concentration of cell lysates was determined with bicinchoninic acid (Pierce Biotechnology). For Parkin Ub charging experiments, aliquots of lysates were treated with […] for 1 h at 37° C. pH was neutralized with equinormal HCl.
Protein was subjected to SDS-PAGE using 4-20% or 8-16% Tris-Glycine gels (Invitrogen) and transferred onto polyvinylidene fluoride (PVDF) (Millipore). Membranes were incubated with primary antibodies overnight at 4° C. followed by HRP-conjugated secondary antibodies (1:10,000; Jackson ImmunoResearch Laboratories). Primary antibodies used: beta III tubulin (rabbit, 1:1000, CST, #5568, CST), FLAG (mouse, 1:250,000, Sigma, F3165), GAPDH (mouse, 1:100,000-500,000, Meridian Life science, H86504M), GST (1:10,000, Sigma, G7781), MFN1 (mouse, 1:5,000, Abcam, ab57602), MFN2 (mouse, 1:5,000, Abcam, ab56889), Parkin (mouse, 1:2,000, Cell Signaling, #4211), pSer65-Ub (rabbit, 1:15,000, in-house (Fiesel et al., EMBO Reports (2015) 16:1114-30; Fiesel et al., (2015) Autophagy 11:2125-2126)), TOM70 (rabbit, 1:5,000, Proteintech, 14528-1-AP), UBE2L3 (rabbit, 1:10,000, ProteinTech, 14415-1-AP), VDAC1 (mouse, 1:5,000, Abcam, ab14734), vinculin (mouse, 1:100,000, Sigma, V9131).
HeLa 3×FLAG-Parkin C431S cells were seeded in 6-well plates and allowed to attach overnight. Cells were treated with […] of compounds 5, 21-28, 32, 33, or 43-46 2 h before adding CCCP for another 2 h. 10 VM CCCP was added to positive control (PC) wells, 3.5 μM CCCP to compound (+) and negative control (NC) wells. […] Cells were harvested in boiling hot SDS lysis buffer and protein concentration was determined by BCA. Samples were split and left either untreated or were treated with NaOH as indicated. Samples were run on an 8-16% Tris-Glycine gel, blotted onto membranes and probed with antibodies against Flag. Vinculin served as a loading control. Band shift indicates Parkin binding to Ubiquitin, which is cleavable with NaOH (FIG. 21).

[3] = molecular target: Parkin (Homo sapiens (Human), UniProt O60260); assay: Primary HCI assay of EGFP-Parkin translocation to mitochondria; assay type: cell-based; details: primary assay screen, Parkin translocation to mitochondria
Experimental: GFP-Parkin is localized throughout the cell in unstressed cells but translocates to mitochondria when the mitochondrial membrane potential is compromised and Parkin is activated. After automated image acquisition of fixed cells, regions of interest of each cell were defined with the analysis software. […] To quantify the relocalization of GFP-Parkin to mitochondria, the ratio of the GFP intensity in the cytoplasm and the nucleus was calculated. Under non-stressed condition, this ratio is about 1. FIG. 1B is a bar graph showing the results of the assay with a Z factor (Z′) of 0.5-0.8, which indicates its robustness and usefulness as a screening assay. Validation of the assay has been performed by using PINK1 siRNA.
FIGS. 2A-2C show a primary HCI assay with CCCP titration. FIG. 2A is a graphic description of the primary HCI assay of EGFP-Parkin translocation. HeLa cells stably expressing GFP-Parkin were seeded with 1350 cells per well in 384-well plates (25 μL per well). Cells were allowed to attach overnight before drug was added 2× concentrated in a volume of 25 μL in triplicates. After 2 h, 50 μL of a 2× low-dose CCCP (yielding a final concentration of 3.5 μM CCCP) was added to all wells that contained test compounds and for the negative control. For positive control wells, CCCP was added in a final concentration of 10 μM. After 2 h incubation with CCCP, cells were fixed and labeled with Hoechst for at least 1 h before cells were imaged. […] Values were being normalized to negative and positive control values and plotted as % activity. Z′ was calculated for quality control. Positive controls were indicated in green, negative control wells in red. Drugs that lead to more than 50% activity are considered positive (blue).
Functional testing of compounds was performed using an established primary HCI assay for Parkin translocation, which correlates well with enzymatic activation (Fiesel et al., J. Cell Science (2014) 127:3488-3504; Fiesel et al., Human Mutation (2015) 36:774-786). In brief, 1400 HeLa cells stably expressing EGFP-Parkin were seeded into optical 384-well plates (Greiner BioOne) in 25 μL media and allowed to adhere for 40 h. Compounds 1, 2, 3, 4, and 31 were added to the plate as 2× concentrated stocks. Control wells were treated with equal volume of DMSO in media. After 2 h, unless otherwise stated, CCCP was added as 2× concentrated stock with a final assay concentration of 10 μM for PC wells and 3.5 μM for test and NC wells. This low dose of CCCP was experimentally determined by a dose response curve of CCCP to result in no Parkin translocation (FIG. 13). After another 2 h, cells were fixed in 4% paraformaldehyde for 10 min and stained with Hoechst 33342 (1:5000, Invitrogen) before plates were imaged and analyzed.
Image acquisition was performed on a BD Pathway 855 with the Attovision V1.6 software (BD Biosciences). Wells were imaged with a 20× objective using a 2×2 montage with laser autofocus. EGFP exposure time was 0.0175 sec, Hoechst 0.0015 sec. Raw images were not processed and directly analyzed using a build-in ‘RING—2 output’ algorithm. Values were exported and normalized using JMP 11 software and transferred to GraphPad Prism 7 for quality control, graphing and curve fitting for DRCs with a variable slope using four parameters. […] Values were normalized to both PC and NC values from 24 wells each per plate and the Z′ score was calculated. Plates with Z′<0.5 were repeated.

[4] = tested on: Caco-2 cells; assay: Caco-2 A-B permeability assay; assay type: in vitro ADME; details: A-B, 90 min, pH=7.4; hydrochloride
Experimental: (§1) Caco-2 cells were cultivated in 75 cm^2 flasks to 80-90% of confluence according to the ATCC and Millipore recommendations (Millipore protocol note PC1060EN00P) in a humidified atmosphere at 37° C. and 5% CO2. Cells were detached with Trypsin/EDTA solution and re-suspended in the cell culture medium to a final concentration of 2×10^5 cells/mL. 500 μL of the cell suspension was added to each well of an HTS 24-multiwell insert system and 35 mL of prewarmed complete medium was added to the feeder tray. Caco-2 cells were incubated in the multiwell insert system for 10 days before the transport experiments. The medium in the filter plate and feeder tray was changed every other day. After 10 days of cell growth, the integrity of the monolayer was verified by measuring the transepithelial electrical resistance (TEER) for every well using the Millicell-ERS system ohm meter. […] The 24-well insert plate was removed from its feeder plate and placed in a new sterile 24-well transport analysis plate. The medium was aspirated and inserts washed with PBS.
(§2) To determine the rate of drug transport in apical (A) to basolateral (B) direction, 300 μL of the test compound solution in buffer (HBSS, 5.6 mM glucose, 10 mM HEPES, pH=7.4) was added into the filter wells and 1000 μL of the same buffer was added to wells in the transport analysis plate. The plates were incubated for 90 min. at 37° C. with shaking at 50 rpm. 75 μL aliquots were taken from the apical and basolateral compartment for LC-MS/MS analysis. All samples for LC-MS/MS analysis were extracted by acetonitrile (×2 volume) followed by protein sedimentation by centrifuging at 10000 rpm for 10 minutes. Supernatants were analyzed using the HPLC system coupled with a tandem mass spectrometer.
(§3) The apparent permeability (Papp) was calculated for the Caco-2 permeability assay using the following equation: Papp=(VA/((Area)×(Time))×([drug]acc/[drug]initial,d), where: […]

[5] = Caco-2 A-B permeability assay; assay type: in vitro ADME; details: human, Caco-2, pH 7.4, A-B
Experimental: as §1, §2, §3

Sequence of CYP 2D6 (P10635 whole entry): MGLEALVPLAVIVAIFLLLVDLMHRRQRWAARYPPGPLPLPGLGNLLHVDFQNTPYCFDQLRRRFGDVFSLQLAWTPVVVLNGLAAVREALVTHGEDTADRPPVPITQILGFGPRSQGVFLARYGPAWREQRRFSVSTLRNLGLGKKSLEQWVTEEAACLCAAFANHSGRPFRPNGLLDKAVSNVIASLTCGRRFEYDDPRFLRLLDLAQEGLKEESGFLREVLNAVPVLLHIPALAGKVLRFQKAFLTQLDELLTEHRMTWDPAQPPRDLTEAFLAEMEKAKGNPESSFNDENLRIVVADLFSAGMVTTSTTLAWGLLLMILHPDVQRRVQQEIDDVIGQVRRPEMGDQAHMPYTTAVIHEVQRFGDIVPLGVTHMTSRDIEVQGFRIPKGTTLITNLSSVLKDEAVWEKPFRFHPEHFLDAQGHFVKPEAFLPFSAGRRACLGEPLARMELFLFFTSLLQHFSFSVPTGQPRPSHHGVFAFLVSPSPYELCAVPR

Compound	Ub-charging of FLAG-Parkin C431S (WB) [2]	EC50 [3] [nM]	other results
C=C[C@H]1C[N@@]2CC[C@H]1C[C@@H]2[C@@H](O)c1ccnc2ccc(OC)cc12 [quinidine, reference compound]			inhibition at 1 µM [1]: 88.4%
Cc1nc(NC(=O)Cn2cnc3c2CCCC3)ccc1-c1ccccc1 [Compound 5]	enhanced Ub-charging	63	
c1ccc(CN2CCCN(c3ncnc4c3CCCCC4)CC2)cc1 [Compound 32]	enhanced Ub-charging	36	
c1ccc(CN2CCCN(c3ncnc4c3CCCC4)CC2)cc1 [Compound 33]	enhanced Ub-charging	111	
CC(C)NCC(O)COc1cccc2ccccc12 (stereo not shown) [Propranolol, propranolol hydrochloride, reference compound]			Permeability (individual replicates 1, 2) [4]: 20.6 10^−6 cm/s; Papp at 90 min ([5]; read-out: Permeability (individual replicates 1, 2)): 23 ×10⁻⁶ cm/s; Papp at 90 min ([5]; read-out: Permeability Mean): 21.8 ×10⁻⁶ cm/s
